Experimental data: the supplement of paper PMC10307832

Tests used:
Assay in all cases: relative viability (nuclei count vs DMSO), 5 days (fraction); higher = more cells survive
VE-821 + Vorinostat = compound: CS(=O)(=O)c1ccc(-c2cnc(N)c(C(=O)Nc3ccccc3)n2)cc1 [VE-821] + O=C(CCCCCCC(=O)Nc1ccccc1)NO [Vorinostat] (partner 1 µM)
Procedure, shortened: (§1)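 Cells from lung cancer lines were seeded into 1536-well plates and, one day later, dosed by pin tool. Treatments were either a single drug or a fixed dose of an anchor drug with five library-drug doses (not always all listed) in √10 steps. After 5 days, nuclei were stained in a one-step fixation (final 0.05% Triton X-100, 1% formaldehyde, 1 ug/ml Hoechst) and counted on 4× images, and relative viability is the treated-to-vehicle nuclei ratio, as the median of duplicate plates.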

Vismodegib + Vorinostat = compound: CS(=O)(=O)c1ccc(C(=O)Nc2ccc(Cl)c(-c3ccccn3)c2)c(Cl)c1 [Vismodegib] + O=C(CCCCCCC(=O)Nc1ccccc1)NO [Vorinostat] (partner 1 µM)
Procedure, shortened: as §1

VE-821 + Olaparib = compound: CS(=O)(=O)c1ccc(-c2cnc(N)c(C(=O)Nc3ccccc3)n2)cc1 [VE-821] + O=C(c1cc(Cc2n[nH]c(=O)c3ccccc23)ccc1F)N1CCN(C(=O)C2CC2)CC1 [Olaparib] (partner 8 µM)
Procedure, shortened: as §1

VE-821 + AZD7762 = compound: CS(=O)(=O)c1ccc(-c2cnc(N)c(C(=O)Nc3ccccc3)n2)cc1 [VE-821] + NC(=O)Nc1cc(-c2cccc(F)c2)sc1C(=O)N[C@H]1CCCNC1 [AZD7762] (partner 0.2 µM)
Procedure, shortened: as §1

Cell Line	relative viability (VE-821 + Vorinostat; first compound 0.08 µM)	relative viability (VE-821 + Vorinostat; first compound 0.253 µM)	relative viability (VE-821 + Vorinostat; first compound 0.8 µM)	relative viability (VE-821 + Vorinostat; first compound 8 µM)	relative viability (Vismodegib + Vorinostat; first compound 0.08 µM)	relative viability (Vismodegib + Vorinostat; first compound 0.253 µM)	relative viability (Vismodegib + Vorinostat; first compound 0.8 µM)	relative viability (Vismodegib + Vorinostat; first compound 2.53 µM)	relative viability (Vismodegib + Vorinostat; first compound 8 µM)	relative viability (VE-821 + Olaparib; first compound 0.08 µM)	relative viability (VE-821 + Olaparib; first compound 0.253 µM)	relative viability (VE-821 + Olaparib; first compound 0.8 µM)	relative viability (VE-821 + Olaparib; first compound 8 µM)	relative viability (VE-821 + AZD7762; first compound 0.08 µM)	relative viability (VE-821 + AZD7762; first compound 0.253 µM)	relative viability (VE-821 + AZD7762; first compound 0.8 µM)	relative viability (VE-821 + AZD7762; first compound 8 µM)	relative viability (VE-821 + Vorinostat; first compound 2.53 µM)	relative viability (VE-821 + Olaparib; first compound 2.53 µM)	relative viability (VE-821 + AZD7762; first compound 2.53 µM)
NCI-H2085	0.935	0.754	0.609	0.511	0.743	0.835	0.821	0.852	0.727	0.774	0.747	0.844	0.694	0.952	0.843	0.366	0.271	–	–	–
BEN	0.557	0.597	0.529	0.594	0.581	0.527	0.578	0.531	0.528	1.17	1.01	0.902	1.08	0.651	0.62	0.675	0.396	0.587	0.768	0.505
NCI-H1395	0.69	0.647	0.705	0.43	0.681	0.663	0.614	0.522	0.8	0.422	0.49	0.481	0.438	0.379	0.391	0.369	0.362	0.638	0.441	0.366
LCLC-97TM1	0.84	0.65	0.879	0.327	0.731	0.64	0.656	0.632	0.42	0.483	0.373	0.418	0.166	0.162	0.137	0.204	0.133	1.01	0.359	0.116
HCC-827	0.728	0.779	0.856	0.722	0.878	0.903	0.909	0.774	0.861	0.735	0.753	0.136	0.711	0.178	0.194	0.169	0.189	0.837	0.734	0.18
NCI-H596	0.703	0.579	0.604	0.51	0.682	0.65	0.609	0.486	0.642	0.701	0.714	0.545	0.527	1.03	0.918	0.915	0.787	0.557	0.555	0.961
NCI-H1734	1.03	0.762	0.733	0.44	0.791	0.732	0.821	0.723	0.737	0.708	0.673	0.558	0.303	0.4	0.428	0.334	0.184	0.707	0.498	0.334
NCI-H1648	0.483	–	0.485	0.641	0.607	0.757	0.389	0.465	0.512	1.14	–	0.909	0.468	0.582	–	0.49	0.319	0.532	0.922	0.473
NCI-H1651	0.562	0.606	0.583	0.531	0.581	0.582	0.547	0.49	0.503	0.187	0.204	0.19	0.165	0.457	0.386	0.4	0.366	0.556	0.163	0.463
